Bounds are passed on as bounds.

Type in all cases: functional
In assay [1] the test system is Escherichia coli. As to the kind of experiment: Antibacterial activity against clinical isolate Escherichia coli 371/12 expressing blaNDM-7 co-expressing blaCTX-M-15 and blaOXA-1 assessed as meropenem MIC at 47 uM measured after 20 hrs by broth microdilution assay (reference value: 10.06 mg/L).
In assay [2] the test system is Escherichia coli. As to the kind of experiment: Antibacterial activity against clinical isolate Escherichia coli K12 J53-ST10 696/17 expressing blaNDM-1 co-expressing blaCMY-4 assessed as meropenem MIC at 23.5 uM measured after 20 hrs by broth microdilution assay (reference value: 5.03 mg/L). (Dilution methods test growth across graded concentrations, often in twofold steps.)

The test system of assay [3] is Acinetobacter baumannii. As to the kind of experiment: Antibacterial activity against clinical isolate Acinetobacter baumannii IC 19/09 expressing blaNDM-1 co-expressing blaOXA-64 assessed as meropenem MIC at 47 uM measured after 20 hrs by broth microdilution assay (reference value: 10.06 mg/L).
The test system of assay [4] is Escherichia coli. As to the kind of experiment: Antibacterial activity against clinical isolate Escherichia coli ST1012/10 expressing blaNDM-1 co-expressing blaTEM-1/blaCTX-M-15/blaOXA-1 and blaOXA-2 assessed as meropenem MIC at 47 uM measured after 20 hrs by broth microdilution assay (reference value: 10.06 mg/L).
In assay [5] the test system is Klebsiella pneumoniae. As to the kind of experiment: Antibacterial activity against clinical isolate Klebsiella pneumoniae 62/07 expressing blaVIM-19 co-expressing blaSHV-1/blaCTX-M-14 and blaCMY-4 assessed as meropenem MIC at 47 uM measured after 20 hrs by broth microdilution assay (reference value: 10.06 mg/L).
Assay [6] concerns Escherichia coli. As to the kind of experiment: Antibacterial activity against clinical isolate Escherichia coli K12 J53-ST10 696/17 expressing blaNDM-1 co-expressing blaCMY-4 assessed as meropenem MIC at 47 uM measured after 20 hrs by broth microdilution assay (reference value: 10.06 mg/L).
The subject of assay [7] is Escherichia coli. As to the kind of experiment: Antibacterial activity against clinical isolate Escherichia coli K12 J53-ST10 699/15 expressing blaNDM-1 assessed as meropenem MIC at 47 uM measured after 20 hrs by broth microdilution assay (reference value: 10.06 mg/L).
Assay [8] deals with Klebsiella pneumoniae. Put plainly: Antibacterial activity against clinical isolate Klebsiella pneumoniae 50/11 expressing blaNDM-1 co-expressing blaTEM-1/blaSHV-28/blaTEM-1/blaCTX-M-15 and blaOXA-1 assessed as meropenem MIC at 47 uM measured after 20 hrs by broth microdilution assay (reference value: 10.06 mg/L).
For assay [9], the system named is Escherichia coli. As to the kind of experiment: Antibacterial activity against clinical isolate Escherichia coli K12 J53-ST10 684/18 expressing blaNDM-1 co-expressing blaCMY-2 and blaOXA-10 assessed as meropenem MIC at 23.5 uM measured after 20 hrs by broth microdilution assay (reference value: 5.03 mg/L).
In assay [10] the test system is Klebsiella pneumoniae. Put plainly: Antibacterial activity against clinical isolate Klebsiella pneumoniae 50/20 expressing blaNDM-5 co-expressing blaTEM-1 and blaSHV-1 assessed as meropenem MIC at 23.5 uM measured after 20 hrs by broth microdilution assay (reference value: 5.03 mg/L).
The subject of assay [11] is Escherichia coli. As to the kind of experiment: Antibacterial activity against clinical isolate Escherichia coli K12 J53-ST10 699/15 expressing blaNDM-1 assessed as meropenem MIC at 23.5 uM measured after 20 hrs by broth microdilution assay (reference value: 5.03 mg/L).
Assay [12] relates to Klebsiella pneumoniae. As to the kind of experiment: Antibacterial activity against clinical isolate Klebsiella pneumoniae ST23213/19 expressing blaNDM-1 co-expressing blaOXA-48/blaSHV-11/blaCTX-M-15 and blaOXA-1 assessed as meropenem MIC at 47 uM measured after 20 hrs by broth microdilution assay (reference value: 10.06 mg/L).
The test system of assay [13] is Klebsiella pneumoniae. Put plainly: Antibacterial activity against clinical isolate Klebsiella pneumoniae ST1493/10 expressing blaNDM-1 co-expressing blaCMY-2like/blaTEM-1/blaCTX-M-15/blaSHV-28/blaOXA-1 and blaOXA-9 assessed as meropenem MIC at 47 uM measured after 20 hrs by broth microdilution assay (reference value: 10.06 mg/L).
The test system of assay [14] is Escherichia coli. As to the kind of experiment: Antibacterial activity against clinical isolate Escherichia coli ST1012/10 expressing blaNDM-1 co-expressing blaTEM-1/blaCTX-M-15/blaOXA-1 and blaOXA-2 assessed as meropenem MIC at 23.5 uM measured after 20 hrs by broth microdilution assay (reference value: 5.03 mg/L).
Assay [15] has as its system Acinetobacter baumannii. Put plainly: Antibacterial activity against clinical isolate Acinetobacter baumannii IC 19/09 expressing blaNDM-1 co-expressing blaOXA-64 assessed as meropenem MIC at 23.5 uM measured after 20 hrs by broth microdilution assay (reference value: 5.03 mg/L).
The test system of assay [16] is Klebsiella pneumoniae. As to the kind of experiment: Antibacterial activity against clinical isolate Klebsiella pneumoniae 50/20 expressing blaNDM-5 co-expressing blaTEM-1 and blaSHV-1 assessed as meropenem MIC at 47 uM measured after 20 hrs by broth microdilution assay (reference value: 10.06 mg/L).
Assay [17] concerns Klebsiella pneumoniae. Put plainly: Antibacterial activity against clinical isolate Klebsiella pneumoniae ST1493/10 expressing blaNDM-1 co-expressing blaCMY-2like/blaTEM-1/blaCTX-M-15/blaSHV-28/blaOXA-1 and blaOXA-9 assessed as meropenem MIC at 23.5 uM measured after 20 hrs by broth microdilution assay (reference value: 5.03 mg/L).
Assay [18] deals with Klebsiella pneumoniae. As to the kind of experiment: Antibacterial activity against clinical isolate Klebsiella pneumoniae 62/07 expressing blaVIM-19 co-expressing blaSHV-1/blaCTX-M-14 and blaCMY-4 assessed as meropenem MIC at 23.5 uM measured after 20 hrs by broth microdilution assay (reference value: 5.03 mg/L).
Assay [19] has as its system Escherichia coli. As to the kind of experiment: Antibacterial activity against clinical isolate Escherichia coli K12 J53-ST10 684/18 expressing blaNDM-1 co-expressing blaCMY-2 and blaOXA-10 assessed as meropenem MIC at 47 uM measured after 20 hrs by broth microdilution assay (reference value: 10.06 mg/L).
The test system of assay [20] is Escherichia coli. As to the kind of experiment: Antibacterial activity against clinical isolate Escherichia coli K12 J53-ST10 618/15 expressing blaNDM-1 assessed as meropenem MIC at 23.5 uM measured after 20 hrs by broth microdilution assay (reference value: 5.03 mg/L).
The subject of assay [21] is Escherichia coli. Put plainly: Antibacterial activity against clinical isolate Escherichia coli 371/12 expressing blaNDM-7 co-expressing blaCTX-M-15 and blaOXA-1 assessed as meropenem MIC at 23.5 uM measured after 20 hrs by broth microdilution assay (reference value: 5.03 mg/L).
For assay [22], the system named is Klebsiella pneumoniae. As to the kind of experiment: Antibacterial activity against clinical isolate Klebsiella pneumoniae ST23213/19 expressing blaNDM-1 co-expressing blaOXA-48/blaSHV-11/blaCTX-M-15 and blaOXA-1 assessed as meropenem MIC at 23.5 uM measured after 20 hrs by broth microdilution assay (reference value: 5.03 mg/L).
Assay [23] concerns Escherichia coli. Put plainly: Antibacterial activity against clinical isolate Escherichia coli K12 J53-ST10 618/15 expressing blaNDM-1 assessed as meropenem MIC at 47 uM measured after 20 hrs by broth microdilution assay (reference value: 10.06 mg/L).
Assay [24] has as its system Klebsiella pneumoniae. As to the kind of experiment: Antibacterial activity against clinical isolate Klebsiella pneumoniae 50/11 expressing blaNDM-1 co-expressing blaTEM-1/blaSHV-28/blaTEM-1/blaCTX-M-15 and blaOXA-1 assessed as meropenem MIC at 23.5 uM measured after 20 hrs by broth microdilution assay (reference value: 5.03 mg/L).

Broadly, the MIC is the least concentration at which growth counts as inhibited. Take `Oc1c(Cl)cc(Cl)c2cccnc12` [CHLOROXINE]: the MIC with Escherichia coli [1], in the assay with Escherichia coli [2], in the assay with Acinetobacter baumannii [3], with Escherichia coli [4], in the assay on Klebsiella pneumoniae [5] and in the assay with Escherichia coli [6] was not above 0.125 µg/mL throughout. Also, the MIC is not above 0.125 µg/mL in the assay with Escherichia coli [7]; not above 0.125 µg/mL in the assay on Klebsiella pneumoniae [8]; not above 0.125 µg/mL with Escherichia coli [9]; 4 µg/mL with Klebsiella pneumoniae [10]; not above 0.125 µg/mL with Escherichia coli [11]; 16 µg/mL in the assay with Klebsiella pneumoniae [12]. The MIC in the assay with Klebsiella pneumoniae [13] is 16 µg/mL; with Escherichia coli [14], not above 0.125 µg/mL; in the assay on Acinetobacter baumannii [15], not above 0.125 µg/mL; in the assay on Klebsiella pneumoniae [16], not above 0.125 µg/mL; in the assay with Klebsiella pneumoniae [17], 128 µg/mL; with Klebsiella pneumoniae [18], 8 µg/mL. Also, the MIC with Escherichia coli [19] was not above 0.125 µg/mL; in the assay with Escherichia coli [20] it was not above 0.125 µg/mL; with Escherichia coli [21], not above 0.125 µg/mL; in the assay on Klebsiella pneumoniae [22], 128 µg/mL; in the assay on Escherichia coli [23], not above 0.125 µg/mL; in the assay on Klebsiella pneumoniae [24], 4 µg/mL.

The values are drawn from ChEMBL document CHEMBL5365420, “Kinetics, Thermodynamics, and Structural Effects of Quinoline-2-Carboxylates, Zinc-Binding Inhibitors of New Delhi Metallo-β-lactamase-1 Re-sensitizing Multidrug-Resistant Bacteria for Carbapenems” (J Med Chem, 2023).
